This note sets out measurements from PubChem BioAssay (NCI).

Some test systems named below: CAKI-1 renal; MDA-MB-435; NCI-H226 lung; OVCAR-8 ovarian; HOP-92 NSCLC; MOLT-4 leukemia; SW-620 colon; SK-OV-3 ovarian.
Test in all cases: inhibition of tumour cell growth, NCI panel, 48 h

Where “and” joins values, the source holds several entries; their conditions need not be identical. Equal entries are not always repeated.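 1) Cells in 96-well plates. 2) Compound, 48 h, 5 concentrations. 3) Linear interpolation between surrounding doses. 4) Unreached endpoint = highest concentration. GI50: concentration for 50% inhibition of growth. Definition used: TGI = concentration required for complete inhibition of growth.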 Where only a bound is given, the exact number is not on record here.

Turning to `CCS(=O)(=O)Nc1cccc(Nc2c3cccc(C)c3nc3c(C)cccc23)c1OC`, the GI50 is 0.347 µM with CAKI-1 renal; 4.05 µM in the assay on MDA-MB-435; 0.627 µM with NCI-H226 lung; 1.19 µM in the assay with OVCAR-8 ovarian; 0.399 µM in the assay with HOP-92 NSCLC; 0.166 µM in the assay with MOLT-4 leukemia. For the same compound, the GI50 was 0.979 µM with SW-620 colon and 1.61 µM in the assay with SK-OV-3 ovarian. Moreover, the TGI in the assay with CAKI-1 renal is 15.8 µM; with MDA-MB-435, > 86 µM; in the assay on NCI-H226 lung, 4.76 µM; with OVCAR-8 ovarian, 74.5 µM; with HOP-92 NSCLC it was 7.4 µM; in the assay with MOLT-4 leukemia, 4.23 µM. For the same compound, the TGI was > 100 µM in the assay with SW-620 colon and 29.7 µM in the assay on SK-OV-3 ovarian.
On to `N#CS.N=C=S.N=C=S.[Cu+2].[NH2-].[NH2-].[NH2-].[NH2-].c1ccc2ncccc2c1`, for which the GI50 with CAKI-1 renal was > 100 µM; in the assay on MDA-MB-435 it was 19.4 µM; with NCI-H226 lung, 28.3 µM; with OVCAR-8 ovarian, > 100 µM; in the assay with HOP-92 NSCLC, > 100 µM; in the assay on MOLT-4 leukemia it was > 100 µM. Besides, the GI50 in the assay on SW-620 colon was > 100 µM; in the assay with SK-OV-3 ovarian, 24.4 µM. The TGI is > 100 µM in the assay on CAKI-1 renal; 41.3 µM in the assay on MDA-MB-435; 49.4 µM with NCI-H226 lung; > 100 µM in the assay on OVCAR-8 ovarian; > 100 µM in the assay on HOP-92 NSCLC; > 100 µM with MOLT-4 leukemia. Further, the TGI in the assay with SW-620 colon was > 100 µM; with SK-OV-3 ovarian, 62.7 µM.
For the compound `O=c1c2ccccc2c2ccccc2c(=O)n1Cc1ccc2c(c1)OCO2`, the TGI in the assay with CAKI-1 renal was > 100 µM; in the assay with MDA-MB-435, 55.7 µM; with NCI-H226 lung, > 100 µM; in the assay with OVCAR-8 ovarian, > 100 µM; in the assay on HOP-92 NSCLC, > 100 µM; with MOLT-4 leukemia, > 50.6 µM. Further, the TGI in the assay with SW-620 colon and in the assay with SK-OV-3 ovarian was > 100 µM throughout.
`c1ccc(CN=C(NCc2ccccc2)NCc2ccccc2)cc1`: the GI50 in the assay on CAKI-1 renal is 11.1 µM; in the assay on MDA-MB-435 it was 3.21 µM; in the assay on NCI-H226 lung it was 6.04 µM; in the assay on OVCAR-8 ovarian it was 6.44 µM; with HOP-92 NSCLC, 3.18 µM; in the assay with MOLT-4 leukemia, 3.77 µM. Moreover, the GI50 is 4.42 µM in the assay with SW-620 colon and 10.9 µM in the assay on SK-OV-3 ovarian. In addition, the TGI was 26.7 µM in the assay on CAKI-1 renal; 15.1 µM in the assay with MDA-MB-435; 21.4 µM with NCI-H226 lung; 21.8 µM with OVCAR-8 ovarian; 12.7 µM with HOP-92 NSCLC; 19.1 µM in the assay on MOLT-4 leukemia. Besides, the TGI in the assay on SW-620 colon came out at 17.9 µM; with SK-OV-3 ovarian it was 23.6 µM.
Turning to `CCN(CC)CCNc1cc(-c2cccc(OC(F)(F)F)c2)nc2ccc(N3CCCC3)cc12`, the GI50 in the assay with CAKI-1 renal was 1.58 µM and 1.41 µM and 3.08 µM; with MDA-MB-435, 1.47 µM and 1.43 µM and 1.74 µM; with NCI-H226 lung, 2.08 µM and 1.76 µM and 2.79 µM; in the assay with OVCAR-8 ovarian, 1.94 µM and 1.76 µM and 1.99 µM; in the assay on HOP-92 NSCLC it was 1.17 µM and 1.34 µM and 1.51 µM; in the assay with MOLT-4 leukemia it was 1.84 µM and 1.92 µM and 2.08 µM. The GI50 in the assay on SW-620 colon is 1.67 µM and 1.86 µM and 2.01 µM; with SK-OV-3 ovarian it was 1.69 µM and 1.88 µM and 3.01 µM. In addition, the TGI was 3.29 µM and 2.76 µM and 11.5 µM in the assay with CAKI-1 renal; 2.83 µM and 2.85 µM and 3.3 µM with MDA-MB-435; 4.26 µM and 3.45 µM and 8.02 µM with NCI-H226 lung; 4.04 µM and 3.36 µM and 4.24 µM with OVCAR-8 ovarian; 2.84 µM and 3.09 µM and 4.68 µM in the assay on HOP-92 NSCLC; 4.7 µM and 4.92 µM and 6.08 µM with MOLT-4 leukemia. Further, the TGI is 3.25 µM and 3.79 µM and 4.36 µM in the assay on SW-620 colon; 3.63 µM and 3.66 µM and 9.59 µM in the assay with SK-OV-3 ovarian.
As to `COc1cc(-c2ncn(/C=C\C(=O)OC(C)C)n2)cc(C(F)(F)F)c1`, the GI50 is 0.0464 µM and 0.0331 µM in the assay with CAKI-1 renal; 0.0437 µM and 0.0485 µM in the assay on MDA-MB-435; 0.0164 µM and 0.031 µM with NCI-H226 lung; 0.045 µM and 0.031 µM in the assay with OVCAR-8 ovarian; 0.303 µM and 0.103 µM with HOP-92 NSCLC; 0.0302 µM and 0.0282 µM in the assay on MOLT-4 leukemia. Also, the GI50 with SW-620 colon was 0.0368 µM and 0.0441 µM; with SK-OV-3 ovarian, 0.357 µM and 0.179 µM. The TGI in the assay on CAKI-1 renal was 12.7 µM and 5.52 µM; with MDA-MB-435, 0.702 µM and 0.457 µM; in the assay with NCI-H226 lung it was 0.64 µM and 1.66 µM; in the assay with OVCAR-8 ovarian, 11.4 µM and 1.41 µM; with HOP-92 NSCLC it was 4.96 µM and 5.68 µM; with SW-620 colon it was 6.58 µM and 5.38 µM. Also, in the assay on SK-OV-3 ovarian, the TGI is 16.9 µM and 15.1 µM.
For `C=CN(C)S(C)(=O)=O`, the GI50 in the assay with CAKI-1 renal, with MDA-MB-435, in the assay with NCI-H226 lung, with OVCAR-8 ovarian, in the assay with HOP-92 NSCLC and with MOLT-4 leukemia was > 100 µM throughout. Moreover, the GI50 in the assay on SW-620 colon and in the assay with SK-OV-3 ovarian was > 100 µM each time. The TGI with CAKI-1 renal, in the assay with MDA-MB-435, with NCI-H226 lung, with OVCAR-8 ovarian, with HOP-92 NSCLC and in the assay on MOLT-4 leukemia was > 100 µM in each case. In addition, the TGI with SW-620 colon and with SK-OV-3 ovarian was > 100 µM in each case.
